Calls of active or inactive are those of the source.

The results in this text go back to ChEMBL document CHEMBL1201862, “PubChem BioAssay data set” (2004).

Experiment [1] concerns the target Heat shock protein HSP 90-alpha (Homo sapiens, UniProt P07900). Format: functional, organism-based.
Experiment [2] relates to INS1. The experiment is described as follows: INS-1E survival protection against cytokine death – cell-based, luminescence, retest, dose response (AID 449756).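 Note: cell death triggered by IL-1 beta plus TNF-alpha plus IFN-gamma mixture; protective hits raise ATP signal compared with cytokine alone wells.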 Format: functional. Conditions: Rattus norvegicus.
Experiment [3] in a line: reduction of Shn3 3'UTR-driven luciferase in osteoblasts – cell-based, Clone20 osteoblasts, firefly luciferase, cherry-picked, dose response (AID 624132).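 Note: firefly luciferase luminescence from reporter carrying the Shn3 3'UTR in osteoblasts.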 Type of experiment: functional.
Experiment [4] in a line: loss of viability in HepG2 cells – cell-based, CellTiter-Glo, cherry-picked, cytotoxicity control for Shn3 inhibitor project, dose response (AID 624134). Format: functional. A general note: Cellular ATP, detected with luciferase, serves as a proxy for viable cell number.
In experiment [5] the target is Dual specificity protein kinase CLK2 (Homo sapiens, UniProt P49760). Type of experiment: functional.
Sequence of Dual specificity protein kinase CLK2 (P49760 whole entry): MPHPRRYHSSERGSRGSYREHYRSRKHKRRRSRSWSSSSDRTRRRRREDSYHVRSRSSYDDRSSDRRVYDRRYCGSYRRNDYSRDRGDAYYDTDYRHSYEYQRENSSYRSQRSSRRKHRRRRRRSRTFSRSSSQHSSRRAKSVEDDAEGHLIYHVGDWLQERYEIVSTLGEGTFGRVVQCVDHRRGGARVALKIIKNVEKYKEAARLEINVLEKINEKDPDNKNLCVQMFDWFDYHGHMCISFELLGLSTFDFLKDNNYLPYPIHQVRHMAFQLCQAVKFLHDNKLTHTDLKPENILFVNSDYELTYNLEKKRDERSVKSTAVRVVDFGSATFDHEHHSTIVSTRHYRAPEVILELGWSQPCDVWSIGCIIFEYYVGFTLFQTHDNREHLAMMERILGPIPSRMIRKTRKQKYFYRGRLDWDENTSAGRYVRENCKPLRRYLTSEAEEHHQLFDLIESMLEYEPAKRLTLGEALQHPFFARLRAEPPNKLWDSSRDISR
For experiment [6], the target named is Dual specificity mitogen-activated protein kinase kinase 1 (Homo sapiens, UniProt Q02750). The experiment is described as follows: Navigating the Kinome. Panel member name: MAP2K1. Type of experiment: functional.
Experiment [7] concerns the target Tyrosine-protein kinase JAK2 (Homo sapiens, UniProt O60674). Type of experiment: functional.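 Note: JAK2 tested as one member of a kinase panel.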
In experiment [8] the target is Serine/threonine-protein kinase TBK1 (Homo sapiens, UniProt Q9UHD2). Nature of the experiment: Navigating the Kinome. Panel member name: TBK1. Format: functional.
Experiment [9] concerns the target ALK tyrosine kinase receptor (Homo sapiens, UniProt Q9UM73). Format: functional.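 Note: ALK tested as one member of a kinase panel screen.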
Experiment [10] deals with Serine/threonine-protein kinase D3 (Homo sapiens, UniProt O94806). Type of experiment: functional.
Experiment [11] has as its target Tyrosine-protein kinase Lck (Homo sapiens, UniProt P06239). Type of experiment: functional.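 Note: lck was assayed as one member of a kinase panel.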
Experiment [12] has as its target Death-associated protein kinase 3 (Homo sapiens, UniProt O43293). Type of experiment: functional.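 Note: measured as one member of a kinome-wide profiling panel.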
In experiment [13] the target is Mitogen-activated protein kinase 8 (Homo sapiens, UniProt P45983). Format: functional.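 Note: value comes from one member of a kinome-wide kinase profiling panel.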
Experiment [14] deals with Tyrosine-protein kinase BTK (Homo sapiens, UniProt Q06187). Type of experiment: functional.
For experiment [15], the target named is Tyrosine-protein kinase JAK3 (Homo sapiens, UniProt P52333). Format: functional.
Experiment [16] addresses Mitogen-activated protein kinase 9 (Homo sapiens, UniProt P45984). Format: functional.
Experiment [17] has as its target LIM domain kinase 1 (Homo sapiens, UniProt P53667). Nature of the experiment: Navigating the Kinome. Panel member name: LIMK1. Type of experiment: functional.
The target of experiment [18] is Serine/threonine-protein kinase TAO1 (Homo sapiens, UniProt Q7L7X3). Type of experiment: functional.
Experiment [19] concerns the target High affinity nerve growth factor receptor (Homo sapiens, UniProt P04629). Format: functional.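 Note: NTRK1 tested as one member of a kinome-wide profiling panel.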
In experiment [20] the target is Mitogen-activated protein kinase kinase kinase kinase 2 (Homo sapiens, UniProt Q12851). Format: functional.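 Note: measured as one member of a kinome-wide kinase panel, with MAP4K2 as the panel entry.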
The target in experiment [21] is Activated CDC42 kinase 1 (Homo sapiens, UniProt Q07912). Nature of the experiment: Navigating the Kinome. Panel member name: ACK1. Format: functional.
Sequence of Activated CDC42 kinase 1 (Q07912 whole entry): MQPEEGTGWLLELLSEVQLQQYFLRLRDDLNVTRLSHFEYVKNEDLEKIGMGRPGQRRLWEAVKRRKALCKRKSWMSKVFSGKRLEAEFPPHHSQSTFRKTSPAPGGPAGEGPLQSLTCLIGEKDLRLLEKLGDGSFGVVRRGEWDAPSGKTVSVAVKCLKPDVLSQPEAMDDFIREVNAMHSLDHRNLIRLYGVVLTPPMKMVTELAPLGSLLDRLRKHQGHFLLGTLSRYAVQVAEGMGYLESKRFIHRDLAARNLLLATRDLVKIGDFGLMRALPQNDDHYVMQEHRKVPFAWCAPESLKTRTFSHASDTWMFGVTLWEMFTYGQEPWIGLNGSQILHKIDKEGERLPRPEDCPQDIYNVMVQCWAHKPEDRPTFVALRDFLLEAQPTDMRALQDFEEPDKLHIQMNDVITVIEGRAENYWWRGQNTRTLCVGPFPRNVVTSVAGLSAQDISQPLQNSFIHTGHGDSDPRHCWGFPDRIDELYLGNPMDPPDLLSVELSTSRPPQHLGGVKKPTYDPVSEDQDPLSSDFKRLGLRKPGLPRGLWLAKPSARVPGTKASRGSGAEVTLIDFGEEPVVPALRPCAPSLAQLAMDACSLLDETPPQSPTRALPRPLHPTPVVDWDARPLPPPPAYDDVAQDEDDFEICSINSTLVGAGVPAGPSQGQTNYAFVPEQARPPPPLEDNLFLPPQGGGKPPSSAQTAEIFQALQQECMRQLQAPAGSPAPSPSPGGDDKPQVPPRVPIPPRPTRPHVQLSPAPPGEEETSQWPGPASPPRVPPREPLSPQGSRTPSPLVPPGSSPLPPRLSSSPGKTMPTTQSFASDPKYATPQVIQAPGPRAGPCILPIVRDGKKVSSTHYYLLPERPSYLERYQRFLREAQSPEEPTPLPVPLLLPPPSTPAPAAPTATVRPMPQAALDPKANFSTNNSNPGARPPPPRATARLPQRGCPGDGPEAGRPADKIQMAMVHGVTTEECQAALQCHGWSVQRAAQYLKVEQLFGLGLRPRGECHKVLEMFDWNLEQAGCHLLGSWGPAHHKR
Experiment [22] addresses Receptor-type tyrosine-protein kinase FLT3 (Homo sapiens, UniProt P36888). Format: functional.
Experiment [23] addresses Tyrosine-protein kinase ABL1 (Homo sapiens, UniProt P00519). Type of experiment: functional.
In experiment [24] the target is G protein-coupled receptor kinase 5 (Homo sapiens, UniProt P34947). The experiment is described as follows: Navigating the Kinome. Panel member name: GPRK5. Format: functional.
Experiment [25] deals with Cyclin-dependent kinase 5 (Homo sapiens, UniProt Q00535). Type of experiment: functional.
Sequence of Cyclin-dependent kinase 5 (Q00535 whole entry): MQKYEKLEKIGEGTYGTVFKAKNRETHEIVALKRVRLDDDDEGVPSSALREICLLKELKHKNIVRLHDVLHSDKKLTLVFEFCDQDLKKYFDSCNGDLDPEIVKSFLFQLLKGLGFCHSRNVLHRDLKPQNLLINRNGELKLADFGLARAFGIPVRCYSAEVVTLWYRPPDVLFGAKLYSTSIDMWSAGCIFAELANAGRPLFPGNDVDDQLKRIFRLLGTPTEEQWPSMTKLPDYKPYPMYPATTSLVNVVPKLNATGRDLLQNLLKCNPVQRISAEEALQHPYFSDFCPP
In experiment [26] the target is Insulin-like growth factor 1 receptor (Homo sapiens, UniProt P08069). The experiment is described as follows: Navigating the Kinome. Panel member name: IGF1R. Format: functional.
Experiment [27] addresses Dual specificity tyrosine-phosphorylation-regulated kinase 1B (Homo sapiens, UniProt Q9Y463). The experiment is described as follows: Navigating the Kinome. Panel member name: DYRK1B. Type of experiment: functional.
Experiment [28] deals with T1, cAMP-dependent protein kinase catalytic subunit PRKX (Homo sapiens, UniProt P51817).
T1 sequence (P51817 whole entry): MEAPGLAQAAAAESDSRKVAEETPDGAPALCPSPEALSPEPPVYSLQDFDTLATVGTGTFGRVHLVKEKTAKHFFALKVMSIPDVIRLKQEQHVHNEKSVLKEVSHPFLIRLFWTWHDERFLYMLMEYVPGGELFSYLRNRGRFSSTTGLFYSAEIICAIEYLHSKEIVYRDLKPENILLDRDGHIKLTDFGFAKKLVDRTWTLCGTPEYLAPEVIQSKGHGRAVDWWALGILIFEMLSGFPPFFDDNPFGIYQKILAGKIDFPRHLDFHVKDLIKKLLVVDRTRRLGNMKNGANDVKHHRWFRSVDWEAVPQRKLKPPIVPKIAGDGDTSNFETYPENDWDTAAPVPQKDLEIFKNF
Type of experiment: functional.

The target of experiment [29] is Platelet-derived growth factor receptor alpha (Homo sapiens, UniProt P16234). The experiment is described as follows: Navigating the Kinome. Panel member name: PDGFRA. Type of experiment: functional.
Sequence of Platelet-derived growth factor receptor alpha (P16234 whole entry): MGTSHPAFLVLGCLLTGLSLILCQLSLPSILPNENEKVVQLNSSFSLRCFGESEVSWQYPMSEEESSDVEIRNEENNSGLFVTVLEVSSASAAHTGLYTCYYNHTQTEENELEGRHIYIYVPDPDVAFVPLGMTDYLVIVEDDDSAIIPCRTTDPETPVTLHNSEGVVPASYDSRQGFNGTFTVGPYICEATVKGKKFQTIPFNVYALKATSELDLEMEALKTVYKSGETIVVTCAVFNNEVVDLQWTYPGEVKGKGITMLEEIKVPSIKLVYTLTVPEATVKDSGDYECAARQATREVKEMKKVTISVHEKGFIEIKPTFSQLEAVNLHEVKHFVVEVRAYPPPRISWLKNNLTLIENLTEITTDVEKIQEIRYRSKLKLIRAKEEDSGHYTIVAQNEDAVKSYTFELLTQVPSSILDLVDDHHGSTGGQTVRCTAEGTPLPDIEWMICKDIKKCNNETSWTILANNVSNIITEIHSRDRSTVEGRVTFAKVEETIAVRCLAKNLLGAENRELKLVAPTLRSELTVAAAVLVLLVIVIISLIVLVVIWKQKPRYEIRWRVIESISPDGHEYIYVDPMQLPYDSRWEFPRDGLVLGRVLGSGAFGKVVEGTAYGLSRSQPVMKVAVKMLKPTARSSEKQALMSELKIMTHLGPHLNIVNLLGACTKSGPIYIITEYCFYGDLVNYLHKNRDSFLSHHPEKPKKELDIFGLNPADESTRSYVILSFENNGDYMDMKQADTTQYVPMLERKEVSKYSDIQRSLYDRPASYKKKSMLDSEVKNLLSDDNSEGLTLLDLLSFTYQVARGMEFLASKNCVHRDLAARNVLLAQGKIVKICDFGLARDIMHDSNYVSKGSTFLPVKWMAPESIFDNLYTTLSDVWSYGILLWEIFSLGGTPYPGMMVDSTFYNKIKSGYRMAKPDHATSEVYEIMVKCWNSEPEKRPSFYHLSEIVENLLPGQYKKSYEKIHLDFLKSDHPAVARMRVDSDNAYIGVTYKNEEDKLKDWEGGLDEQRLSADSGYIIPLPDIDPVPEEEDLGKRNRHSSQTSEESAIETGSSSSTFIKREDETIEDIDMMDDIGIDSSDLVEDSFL
Experiment [30] concerns the target Aurora kinase B (Homo sapiens, UniProt Q96GD4). Type of experiment: functional.
In experiment [31] the target is Rho-associated protein kinase 1 (Homo sapiens, UniProt Q13464). Format: functional.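 Note: measured within a broad kinome-wide panel profiling many kinases.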
Experiment [32] concerns the target Cyclin-dependent kinase 8 (Homo sapiens, UniProt P49336). Nature of the experiment: Navigating the Kinome. Panel member name: CDK8. Format: functional.
The target in experiment [33] is Glycogen synthase kinase-3 beta (Homo sapiens, UniProt P49841). Type of experiment: functional.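 Note: value comes from a broad kinome profiling panel, with GSK3B as the panel member.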
Sequence of Glycogen synthase kinase-3 beta (P49841 whole entry): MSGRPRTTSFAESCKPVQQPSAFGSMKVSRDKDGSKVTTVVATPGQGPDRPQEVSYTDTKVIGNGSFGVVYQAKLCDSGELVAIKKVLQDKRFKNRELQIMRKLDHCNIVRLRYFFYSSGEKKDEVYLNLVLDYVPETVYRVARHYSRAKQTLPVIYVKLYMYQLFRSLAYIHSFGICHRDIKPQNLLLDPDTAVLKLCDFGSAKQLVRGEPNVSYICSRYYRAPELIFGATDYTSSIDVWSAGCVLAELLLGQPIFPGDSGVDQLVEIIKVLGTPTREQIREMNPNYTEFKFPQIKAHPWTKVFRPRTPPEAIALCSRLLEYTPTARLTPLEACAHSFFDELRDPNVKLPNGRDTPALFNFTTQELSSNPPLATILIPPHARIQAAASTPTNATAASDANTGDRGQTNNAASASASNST
Experiment [34] deals with BDNF/NT-3 growth factors receptor (Homo sapiens, UniProt Q16620). Format: functional.
Sequence of BDNF/NT-3 growth factors receptor (Q16620 whole entry): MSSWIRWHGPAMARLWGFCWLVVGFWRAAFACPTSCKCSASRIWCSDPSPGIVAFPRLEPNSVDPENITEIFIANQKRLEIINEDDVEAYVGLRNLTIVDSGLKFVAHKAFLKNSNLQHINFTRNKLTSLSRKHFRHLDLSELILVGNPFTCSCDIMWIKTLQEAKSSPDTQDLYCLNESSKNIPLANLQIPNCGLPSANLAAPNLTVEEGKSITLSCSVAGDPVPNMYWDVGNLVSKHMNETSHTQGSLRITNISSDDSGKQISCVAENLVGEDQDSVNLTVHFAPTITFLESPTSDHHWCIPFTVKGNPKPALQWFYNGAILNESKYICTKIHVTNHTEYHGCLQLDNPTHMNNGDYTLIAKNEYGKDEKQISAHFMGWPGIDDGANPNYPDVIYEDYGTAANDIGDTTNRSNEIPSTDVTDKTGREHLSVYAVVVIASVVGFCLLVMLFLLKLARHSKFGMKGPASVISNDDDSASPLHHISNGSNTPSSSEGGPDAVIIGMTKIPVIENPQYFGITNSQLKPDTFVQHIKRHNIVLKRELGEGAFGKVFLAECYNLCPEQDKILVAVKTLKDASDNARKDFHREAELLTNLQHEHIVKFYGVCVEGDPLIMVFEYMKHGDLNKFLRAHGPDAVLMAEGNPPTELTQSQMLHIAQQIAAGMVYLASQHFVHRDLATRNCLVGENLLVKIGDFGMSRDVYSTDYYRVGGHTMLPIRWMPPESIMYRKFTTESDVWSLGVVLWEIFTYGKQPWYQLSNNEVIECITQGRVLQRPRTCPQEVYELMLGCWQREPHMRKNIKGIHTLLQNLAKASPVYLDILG
Experiment [35] addresses cAMP-dependent protein kinase catalytic subunit alpha (Homo sapiens, UniProt P17612). Type of experiment: functional.
Experiment [36] concerns the target Dual specificity protein kinase CLK4 (Homo sapiens, UniProt Q9HAZ1). Type of experiment: functional.
The target in experiment [37] is Macrophage-stimulating protein receptor (Homo sapiens, UniProt Q04912). Nature of the experiment: Navigating the Kinome. Panel member name: MST1R. Type of experiment: functional.
For experiment [38], the target named is Dual specificity mitogen-activated protein kinase kinase 2 (Homo sapiens, UniProt P36507). Nature of the experiment: Navigating the Kinome. Panel member name: MAP2K2. Type of experiment: functional.
Sequence of Dual specificity mitogen-activated protein kinase kinase 2 (P36507 whole entry): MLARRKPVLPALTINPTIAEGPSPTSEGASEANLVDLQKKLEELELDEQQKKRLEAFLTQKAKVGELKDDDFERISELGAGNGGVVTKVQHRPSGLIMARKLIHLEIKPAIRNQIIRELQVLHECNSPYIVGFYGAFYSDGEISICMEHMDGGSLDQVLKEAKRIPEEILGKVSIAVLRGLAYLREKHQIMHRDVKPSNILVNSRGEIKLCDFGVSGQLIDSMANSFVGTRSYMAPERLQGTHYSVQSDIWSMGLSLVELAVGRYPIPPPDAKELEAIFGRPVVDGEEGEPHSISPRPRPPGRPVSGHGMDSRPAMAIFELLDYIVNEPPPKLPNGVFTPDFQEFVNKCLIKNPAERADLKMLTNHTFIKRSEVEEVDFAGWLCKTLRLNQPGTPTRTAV
In experiment [39] the target is Inhibitor of nuclear factor kappa-B kinase subunit epsilon (Homo sapiens, UniProt Q14164). Nature of the experiment: Navigating the Kinome. Panel member name: IKBKE. Type of experiment: functional.
Experiment [40] deals with Calcium/calmodulin-dependent protein kinase type II subunit alpha (Homo sapiens, UniProt Q9UQM7). The experiment is described as follows: Navigating the Kinome. Panel member name: CAMK2A. Format: functional.
The target in experiment [41] is Leukocyte tyrosine kinase receptor (Homo sapiens, UniProt P29376). The experiment is described as follows: Navigating the Kinome. Panel member name: LTK. Format: functional.

Sequence of Dual specificity protein kinase CLK4 (Q9HAZ1 whole entry): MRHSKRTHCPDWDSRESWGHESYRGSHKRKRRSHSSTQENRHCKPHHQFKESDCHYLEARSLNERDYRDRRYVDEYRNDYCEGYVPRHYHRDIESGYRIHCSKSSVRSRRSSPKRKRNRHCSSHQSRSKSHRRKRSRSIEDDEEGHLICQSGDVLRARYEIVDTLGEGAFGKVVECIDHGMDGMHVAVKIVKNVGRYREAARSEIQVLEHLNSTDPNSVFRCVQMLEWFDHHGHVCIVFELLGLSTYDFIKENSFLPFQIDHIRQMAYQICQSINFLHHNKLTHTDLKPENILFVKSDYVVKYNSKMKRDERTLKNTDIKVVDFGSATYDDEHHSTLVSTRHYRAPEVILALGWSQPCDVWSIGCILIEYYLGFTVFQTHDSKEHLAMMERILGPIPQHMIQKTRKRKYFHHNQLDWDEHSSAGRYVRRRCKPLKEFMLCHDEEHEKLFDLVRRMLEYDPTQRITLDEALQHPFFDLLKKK

In the case of `Cc1ccc(C(=O)OCn2ncc(Cl)c(Cl)c2=O)cc1`, the concentration at half-maximal activity (AC50) (in general, the concentration giving half of the maximal activity seen) was 4280 nM (active) in experiment [1], 5510 nM (active) in [2], 5070 nM (active) in experiment [3] and 33200 nM (active) in [4].

With `O=C(Nc1cccc(C2Nc3ccc4ccccc4c3C3C=CCC32)c1)c1ccc(F)cc1` (configuration not stated), the Ki (in general, a measure of affinity in units of concentration, obtained from inhibition or displacement) is > 3980 nM (inactive) in [5]; 1000 nM (active) in experiment [6]; > 2510 nM (inactive) in [7]; 3160 nM (active) in experiment [8]; 3160 nM (active) in experiment [9]; > 3980 nM (inactive) in experiment [10]. Moreover, the Ki in experiment [11] was > 6310 nM (inactive); in [12], > 5010 nM (inactive); in experiment [13], 3160 nM (active); in experiment [14] it was 5010 nM (active); in experiment [15], > 5010 nM (inactive); in experiment [16], > 3980 nM (inactive). Besides, the Ki is 200 nM (active) in experiment [17]; > 6310 nM (inactive) in experiment [18]; 794 nM (active) in [19]; 1260 nM (active) in [20]; > 3980 nM (inactive) in experiment [21]; > 3160 nM (inactive) in experiment [22]. The Ki in experiment [23] was 1260 nM (active); in experiment [24] it was 1260 nM (active); in experiment [25], > 3160 nM (inactive); in [26], > 2510 nM (inactive); in experiment [27], > 2510 nM (inactive); in [28], > 3160 nM (inactive). Moreover, the Ki in [29] is > 2510 nM (inactive); in experiment [30] it was 1000 nM (active); in experiment [31] it was > 3980 nM (inactive); in [32], 794 nM (active); in experiment [33] it was 398 nM (active); in experiment [34], > 3980 nM (inactive). In addition, the Ki in experiment [35] is 1260 nM (active); in experiment [36], 1000 nM (active); in experiment [37] it was > 3980 nM (inactive); in experiment [38], 398 nM (active); in experiment [39] it was > 3160 nM (inactive); in [40], > 3980 nM (inactive). Also, the Ki in experiment [41] is > 2510 nM (inactive).

Take `Cc1ccc(-c2cc(-c3cc(Br)ccc3O)[nH]c(=O)c2C#N)s1`: the Ki is > 3980 nM (inactive) in experiment [5]; > 3160 nM (inactive) in [6]; 794 nM (active) in experiment [7]; > 3160 nM (inactive) in [8]; 2000 nM (active) in experiment [9]; > 3980 nM (inactive) in experiment [10]. Besides, the Ki in experiment [11] is > 6310 nM (inactive); in experiment [12], > 5010 nM (inactive); in experiment [13], 794 nM (active); in [14], > 6310 nM (inactive); in experiment [15], > 5010 nM (inactive); in experiment [16], > 3980 nM (inactive). Besides, the Ki in [17] is > 3160 nM (inactive); in experiment [18], > 6310 nM (inactive); in experiment [19] it was 631 nM (active); in [20], > 2510 nM (inactive); in experiment [21] it was 2510 nM (active); in [22], 631 nM (active). In addition, the Ki is > 2510 nM (inactive) in experiment [23]; 1000 nM (active) in [24]; > 3160 nM (inactive) in experiment [25]; 794 nM (active) in experiment [26]; 794 nM (active) in experiment [27]; > 3160 nM (inactive) in experiment [28]. Besides, the Ki in experiment [29] was > 2510 nM (inactive); in [30], 794 nM (active); in experiment [31] it was 1000 nM (active); in experiment [32], 1260 nM (active); in [33], 316 nM (active); in [34], 3160 nM (active). For the same molecule, the Ki was 251 nM (active) in experiment [35]; > 2510 nM (inactive) in experiment [36]; 794 nM (active) in experiment [37]; 1580 nM (active) in experiment [38]; > 3160 nM (inactive) in experiment [39]; 1580 nM (active) in experiment [40]. Moreover, the Ki in experiment [41] was > 2510 nM (inactive).

Regarding `CCCC(=O)NC(c1cccs1)c1cc(Cl)c2cccnc2c1O` (configuration not stated), the AC50 in experiment [1] is 1470 nM (active); in [2], 1420 nM (active); in [3], 3160 nM (active); in experiment [4], 3760 nM (active).
